Test results from patent publication US20170313974A1, “Modulation of Tissue Fatty Acid Composition of a Host by Human Gut Bacteria” (University College Cork, National University of Ireland, priority 2007, published 2017).
Marks after values point to notes of the source that are not given here.

Assays:
BALB/c mice = assay: Tissue fatty acid composition, BALB/c α-linolenic acid feeding trial (8 weeks); type: in vivo
Protocol: Female BALB/c mice were purchased from Harlan ltd. (Briester, Oxon, UK) at 8 weeks of age and fed a normal diet for 1 week to stabilize all metabolic conditions. […] Mice were maintained at 4 per cage and exposed to a 12-h light:dark cycle at a constant temperature of 25° C. The mice were held at the Biological Services Unit in University College Cork. The animal experimentation was performed according to the guidelines for the care and use of laboratory animals approved by the Department of Health and Children.
(§1) Animals were fed standard mouse chow ad libitum with free access to water at all times. […] Following 8 weeks on experimental diets, the animals were sacrificed by cervical dislocation. Liver, adipose tissue and brain were removed from the carcasses, blotted dry on filter paper, weighed and frozen in liquid nitrogen. All samples were stored at −80° C. until processed.
Lipids were extracted according to the method by O'Fallon et al. (20). Briefly, samples were cut into 1.5-mm rectangular strips and placed into a screw-cap Pyrex culture tube together with 0.7 ml of 10 N KOH in water and 5.3 ml of MeOH. The tubes were incubated in a 55° C. water bath for 1.5 h with vigorous hand-shaking every 20 min. After cooling below room temperature, 0.58 ml of 24 N H2SO4 in water was added. The tubes were mixed by inversion and with precipitated K2SO4 present incubated again in 55° C. for 1.5 h with hand-shaking every 20 min. FAME were recovered by addition of 3 ml hexane and vortex mixed and separated by GLC (Varian 3400, Varian, Walnut Creek, Calif. USA fitted with a flame ionization detector) using a Chrompack CP Sil 88 column (Chrompack, Middleton, The Netherlands, 100 m×0.25 mm i.d., 0.20 μm film thickness) and He as carrier gas. The column oven was initially programmed at 80° C. for 8 min, and increased 8.5° C./min to a final column temperature of 200° C. The injection volume was 0.6 μl, with automatic sample injection on a SPI 1093 splitless on-column temperature programmable injector. Data were recorded and analysed on a Minichrom PC system (VG Data System, Manchester, U.K.). Peaks were identified with reference to retention times of fatty acids in a standard mixture. All fatty acid results are shown as mean±standard error mean (SEM) g/100 g FAME.

[1] = Body weight gain, BALB/c α-linolenic acid trial; type: in vivo, BALB/c mice; settings: 8 week trial period
Protocol: as §1

splenocytes = assay: Cytokine production by stimulated splenocytes of fed SCID mice with colitis; type: in vivo
Protocol: (§2) Materials and Methods Severe Combined Immuno Deficient (SCID) mice were used in this study, which had been induced with colitis through adoptive transfer of splenic CD4^+ CD45RB^high T cells from BALB/c mice. […] Ten weeks after colitis induction, cytokine production by splenocytes was measured in vitro by ELISA, myeloperoxidase (MPO) activity was determined in colonic homogenates and fatty acid composition in liver, adipose tissue, cecum and colon was determined by gas liquid chromatography (GLC). Similar studies have also been conducted in pigs (data not shown here) and similar results obtained.
Cytokine production in response to defined stimuli, in vitro, was measured using enzyme-linked immunosorbent assay (ELISA). Splenocyte isolation was performed using an erythrocyte lysing kit (R&D Systems). The spleens of all mice were removed at the time of sacrifice, blotted on filter paper and weighed. Each spleen was immediately placed in Hanks' buffer containing 10% fetal calf serum. The spleen was teased apart and sieved through a cell strainer into a 50 ml centrifuge tube. Cells were centrifuged for 10 minutes at 200 g. The cells were resuspended in 2 ml M-lyse buffer, which lyses red blood cells, and incubated for 8 minutes at room temperature. Lysis was deactivated using wash buffer and the cell suspension was centrifuged for 10 minutes at 200 g. Cells were resuspended in DMEM (10% fetal calf serum, 1% Pen/Strep, Sigma) and diluted to 1×10^6 cells/ml for in vitro culturing. The isolated lymphocytes were cocultured with the proinflammatory bacterium Salmonella typhimurium UK1 (1×10^6 cells/ml) and with antiCD3-antiCD28 monoclonal antibodies for 48 hours at 37° C. Cell supernatants were isolated and stored at −80° C. Cytokine analysis was performed on the supernatants using a BD™ Cytometric Bead Array (CBA) Mouse Inflammation Kit (BD Biosciences, US).

SCID mice = assay: Tissue fatty acid composition, SCID mouse colitis feeding study (10 weeks); type: in vivo
Protocol: as §2
SCID mice were purchased from Harlan ltd. (Briester, Oxon, UK) at 6 weeks of age and fed a normal diet for 1 week to stabilize all metabolic conditions. Each cage contained one mouse. Mice were exposed to a 12-h light:dark cycle and maintained at a constant temperature of 25° C. One week after arrival, mice were divided into five groups for different dietary treatments (Table I).
For linoleic acid and c9t11 CLA treatment, a powdered diet blended with the drug was administered for 10 weeks to yield a dose of drug at approximately 90 mg/day/mouse (this is based on preliminary experiments by Bassaganya-Riera et al. (22) that established an optimal dose of fatty acids of 1 g/100 g of diet).
After the adoptive transfer, mice were weighed three times a week and examined for clinical signs of disease associated with colitis (ie. rectal bleeding, diarrhoea and rectal prolapse). After 10 weeks on experimental diets, the mice were sacrificed by cervical dislocation. Livers, adipose tissue, spleens, colons and cecums were removed from the carcasses, blotted dry on filter paper, weighed and frozen in liquid nitrogen. All samples were stored at −80° C. until processed. The colon was divided into different sections for MPO activity and fatty acid composition.
Lipids were extracted with Chloroform:Methanol 2:1 v/v according to Folch et al. (25). Briefly, tissue or faecal samples, ˜1 g liver, 300 mg small intestine, 200 mg adipose tissue, 250 mg colon, 800 mg cecum or 100 mg feaces were homogenised in over a 25 fold excess of CHCl3:CH3OH (2:1 v/v) and washed with 0.88% KCl solution. Excess solvent was dried down under a gentle stream of N2 at 40° C. and lipids were stored at −20° C. in 1 ml chloroform. Fatty acid methyl esters (FAME) were prepared using first 10 ml 0.5N NaOH in methanol for 10 min at 90° C. followed by 10 ml 14% BF3 in methanol for 10 min at 90° C. (26). FAME was recovered with hexane. Prior to GC analysis samples were dried over 0.5 g of anhydrous sodium sulphate for an hour and stored at −20° C. FAME were separated by gas liquid chromatography (GLC Varian 3400, Varian, Walnut Creek, Calif. USA fitted with a flame ionization detector) using a Chrompack CP Sil 88 column (Chrompack, Middleton, The Netherlands, 100 m×0.25 mm i.d., 0.20 μm film thickness) and He as a carrier gas. The column oven was programmed to be held initially at 80° C. for 8 minutes then increased 8.5° C./min to a final column temperature of 200° C. The injection volume used was 0.6 μl with automatic sample injection with a splitless on SPI on-column temperature programmable injector. Data was recorded and analysed on a Minichrom PC system (VG Data System, Manchester, U.K.). Tri-heptadecanoate (Sigma) was used as an internal standard, and peaks were identified with reference to retention times of fatty acids in a standard mixture. All fatty acid results are shown as mean±SD (n=8) g/100 g FAME.

[2] = adipose tissue, 8 weeks, SEM, n = 8
[3] = stimulation with S. typhimurium UK1
[4] = stimulation with antiCD3-antiCD28

With `CC/C=C\C/C=C\C/C=C\CCCCCCCC(=O)O` [B, α-linolenic acid] the “C16:0 palmitic acid, adipose tissue” value (BALB/c mice; [2]) was 28.73 ± 2.16^c g/100 g FAME, the “C16:1c9 palmitoleic acid, adipose tissue” value (BALB/c mice; [2]) was 6.07 ± 2.01 g/100 g FAME and the “C18:0 stearic acid, adipose tissue” value (BALB/c mice; [2]) was 8.00 ± 2.33 g/100 g FAME. The “C18:1c9 oleic acid, adipose tissue” value (BALB/c mice; [2]) was 14.83 ± 3.01 g/100 g FAME, the “C18:2n-6 linoleic acid, adipose tissue” value (BALB/c mice; [2]) was 18.80 ± 0.81^c g/100 g FAME and the “C18:3n-3 linolenic acid, adipose tissue” value (BALB/c mice; [2]) was 7.35 ± 2.15^c,d g/100 g FAME. The “C18:3n-6 γ-linolenic acid, adipose tissue” value (BALB/c mice; [2]) was 0.13 ± 0.03 g/100 g FAME, the “C18:4n-3 stearidonic acid, adipose tissue” value (BALB/c mice; [2]) was 0.12 ± 0.03 g/100 g FAME and the “C20:3n-6 dihomo-γ-linolenic acid, adipose tissue” value (BALB/c mice; [2]) was 0.30 ± 0.09 g/100 g FAME. The “C20:4n-6 arachidonic acid, adipose tissue” value (BALB/c mice; [2]) was 5.27 ± 2.04^c,d g/100 g FAME, the “C20:5n-3 eicosapentaenoic acid, adipose tissue” value (BALB/c mice; [2]) was 2.37 ± 0.76^c,d g/100 g FAME and the “C22:5n-3 docosapentaenoic acid, adipose tissue” value (BALB/c mice; [2]) was 0.55 ± 0.14^c,d g/100 g FAME. The “C22:6n-3 docosahexaenoic acid, adipose tissue” value (BALB/c mice; [2]) was 1.17 ± 0.36 g/100 g FAME, the “n-6/n-3, adipose tissue” value (BALB/c mice; [2]) was 2.15 ± 0.15^c,d and the “C16:0, brain” value (BALB/c mice; brain, 8 weeks, SEM, n = 8) was 32.38 ± 0.44^c g/100 g FAME. The “C16:1c9, brain” value (BALB/c mice; brain, 8 weeks, SEM, n = 8) was 0.94 ± 0.03^a,c,d g/100 g FAME, the “C18:0, brain” value (BALB/c mice; brain, 8 weeks, SEM, n = 8) was 19.87 ± 0.14^a g/100 g FAME and the “C18:1c9, brain” value (BALB/c mice; brain, 8 weeks, SEM, n = 8) was 17.61 ± 0.24^ g/100 g FAME. For the same compound, the “C18:2n-6, brain” value (BALB/c mice; brain, 8 weeks, SEM, n = 8) was 1.54 ± 0.10^a,c,d g/100 g FAME, the “C20:4n-6, brain” value (BALB/c mice; brain, 8 weeks, SEM, n = 8) was 6.88 ± 0.12^c,d g/100 g FAME and the “C20:5n-3, brain” value (BALB/c mice; brain, 8 weeks, SEM, n = 8) was 0.15 ± 0.01^c,d g/100 g FAME. For the same compound, the “C22:5n-3, brain” value (BALB/c mice; brain, 8 weeks, SEM, n = 8) was 0.24 ± 0.01^c g/100 g FAME, the “C22:6n-3, brain” value (BALB/c mice; brain, 8 weeks, SEM, n = 8) was 8.87 ± 0.30^a g/100 g FAME and the “n-6/n-3, brain” value (BALB/c mice; brain, 8 weeks, SEM, n = 8) was 0.89 ± 0.03^a. The “C18:3n-3, brain” value (BALB/c mice; brain, 8 weeks, SEM, n = 8, ND = not detected) was 0.18 ± 0.02^a,c,d g/100 g FAME, the “higher concentrations of α-linolenic acid and EPA in liver and adipose tissue” value (BALB/c mice; compared with group C and group D, p<0.001) was 10 fold and the “arachidonic acid/EPA ratio in adipose tissue, fold lower” value (BALB/c mice; compared with group D) was about 20 fold. The “arachidonic acid/EPA ratio in liver, fold lower” value (BALB/c mice; compared with group D) was “approximately 30 fold”, the “C16:0 palmitic acid, liver” value (BALB/c mice; liver, 8 weeks, SEM, n = 8) was 23.89 ± 0.71^c,d g/100 g FAME and the “C16:1c9 palmitoleic acid, liver” value (BALB/c mice; liver, 8 weeks, SEM, n = 8) was 2.07 ± 0.18^a,d g/100 g FAME. The “C18:0 stearic acid, liver” value (BALB/c mice; liver, 8 weeks, SEM, n = 8) was 12.36 ± 0.44^a,d g/100 g FAME, the “C18:1c9 oleic acid, liver” value (BALB/c mice; liver, 8 weeks, SEM, n = 8) was 10.16 ± 0.62^c,d g/100 g FAME and the “C18:2n-6 linoleic acid, liver” value (BALB/c mice; liver, 8 weeks, SEM, n = 8) was 18.32 ± 0.21^d g/100 g FAME. For the same compound, the “C18:3n-3 linolenic acid, liver” value (BALB/c mice; liver, 8 weeks, SEM, n = 8) was 9.47 ± 0.64^c,d g/100 g FAME, the “C18:3n-6 γ-linolenic acid, liver” value (BALB/c mice; liver, 8 weeks, SEM, n = 8) was 0.17 ± 0.01^c,d g/100 g FAME and the “C18:4n-3 stearidonic acid, liver” value (BALB/c mice; liver, 8 weeks, SEM, n = 8) was 0.16 ± 0.01^c,d g/100 g FAME. For the same compound, the “C20:3n-6 dihomo-γ-linolenic acid, liver” value (BALB/c mice; liver, 8 weeks, SEM, n = 8) was 0.61 ± 0.02^a g/100 g FAME, the “C20:4n-6 arachidonic acid, liver” value (BALB/c mice; liver, 8 weeks, SEM, n = 8) was 5.57 ± 0.14^a,c,d g/100 g FAME and the “C20:5n-3 eicosapentaenoic acid, liver” value (BALB/c mice; liver, 8 weeks, SEM, n = 8) was 3.07 ± 0.12^a,c,d g/100 g FAME. For the same compound, the “C22:5n-3 docosapentaenoic acid, liver” value (BALB/c mice; liver, 8 weeks, SEM, n = 8) was 0.94 ± 0.05^c,d g/100 g FAME, the “C22:6n-3 docosahexaenoic acid, liver” value (BALB/c mice; liver, 8 weeks, SEM, n = 8) was 5.66 ± 0.28^d g/100 g FAME and the “n-6/n-3, liver” value (BALB/c mice; liver, 8 weeks, SEM, n = 8) was 1.30 ± 0.07^c,d. The body weight gain [1] was “did not significantly influence”.
With `CCCCCC/C=C/C=C\CCCCCCCC(=O)O` [c9, t11 CLA, cis-9, trans-11 CLA] the IFN-γ levels (splenocytes; [3]) was “reduced”, the IL-6 levels (splenocytes; [3]) was “reduced” and the TNF-α levels (splenocytes; [3]) was 1428.7. The IFN-γ levels (splenocytes; [4]) was 1334.2, the IL-6 levels (splenocytes; [4]) was 213.7 and the TNF-α levels (splenocytes; [4]) was 458.9. The “16:1n-7 (palmitoleic acid) in all tissues” value (SCID mice; all tissues) was “higher”, the “20:4n-6 in cecum digests” value (SCID mice; cecum digests) was “significant decrease” and the “16:0 (palmitic acid) in colon” value (SCID mice; colon) was “significantly higher”. The “arachidonic acid, 20:4n-6 (AA) in liver” value (SCID mice; compared to other groups) was “decrease” and the “c9, t11 CLA in all tissues” value (SCID mice; compared to other groups) was “much higher”.
